{
  "source": "patent US10000496B2",
  "about": "“Compositions useful for treating disorders related to kit and PDGFR” (BLUEPRINT MEDICINES CORPORATION, priority 2015, dated 2018)",
  "key": {"D816V Kit": {"biological_target": "T1, D816V Kit (Homo sapiens, UniProt P10721, D816V)", "T1 construct": "purchased Carna Bioscience 08-156", "T1 sequence (P10721 26-976 D816V)": "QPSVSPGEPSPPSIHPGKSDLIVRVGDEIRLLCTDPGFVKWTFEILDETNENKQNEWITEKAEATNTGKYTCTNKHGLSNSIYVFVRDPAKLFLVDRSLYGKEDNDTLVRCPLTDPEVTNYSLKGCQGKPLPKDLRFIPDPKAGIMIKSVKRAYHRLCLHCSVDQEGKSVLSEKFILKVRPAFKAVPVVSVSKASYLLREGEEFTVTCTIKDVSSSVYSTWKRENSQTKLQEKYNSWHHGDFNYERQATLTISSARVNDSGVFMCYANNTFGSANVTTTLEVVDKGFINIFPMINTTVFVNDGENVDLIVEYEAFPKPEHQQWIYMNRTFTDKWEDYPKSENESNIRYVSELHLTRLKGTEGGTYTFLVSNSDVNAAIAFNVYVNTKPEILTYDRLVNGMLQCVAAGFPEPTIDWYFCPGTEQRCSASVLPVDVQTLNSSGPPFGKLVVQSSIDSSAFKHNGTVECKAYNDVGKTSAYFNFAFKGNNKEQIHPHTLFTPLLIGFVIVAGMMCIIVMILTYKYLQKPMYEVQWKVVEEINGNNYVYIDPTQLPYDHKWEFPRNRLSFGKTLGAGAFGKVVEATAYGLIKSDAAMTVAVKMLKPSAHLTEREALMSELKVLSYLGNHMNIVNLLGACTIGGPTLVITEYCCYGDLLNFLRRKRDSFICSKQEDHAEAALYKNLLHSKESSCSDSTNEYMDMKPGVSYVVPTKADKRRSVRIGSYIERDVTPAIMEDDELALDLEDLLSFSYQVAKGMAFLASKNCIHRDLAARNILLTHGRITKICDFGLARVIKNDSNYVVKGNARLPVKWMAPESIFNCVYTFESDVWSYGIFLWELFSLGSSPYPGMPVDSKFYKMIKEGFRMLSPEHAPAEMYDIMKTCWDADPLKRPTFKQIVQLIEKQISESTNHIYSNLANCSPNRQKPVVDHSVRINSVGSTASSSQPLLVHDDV", "assay": "Kit D816V assay at Km (Caliper electrophoretic mobility shift)", "settings": "D816V Kit 0.5 nM, 15 uM ATP (Km), 1 uM Srctide, 25 C, 90 minutes; read-out: Biochemical Activity D816V IC50", "protocol": "In order to assess the activity of chemical compounds against the relevant kinase of interest, the Caliper LifeSciences electrophoretic mobility shift technology platform is used. Fluorescently labeled substrate peptide is incubated in the presence of kinase and ATP so that a […] proportion of the peptide is phosphorylated. At the end of the reaction, the mix of phosphorylated (product) and non-phosphorylated (substrate) peptides are passed through the microfluidic system of the Caliper EZ Reader 2, under an applied potential difference. The presence of the phosphate group on the product peptide provides a difference in mass and charge between those of the substrate peptide, resulting in a separation of the substrate and product pools in the sample. As the pools pass a LEDS within the instrument, these pools are detected and resolved as separate peaks. The ratio between these peaks therefore reflects the activity of the chemical matter at that concentration in that well, under those conditions.\nKit D816V assay at Km: In each well of a 384-well plate, 0.04 ng/ul (0.5 nM) of D816V Kit (Carna Bioscience 08-156) was incubated in a total of 12.5 ul of buffer (100 mM HEPES pH 7.5, 0.015% Brij 35, 10 mM MgCl2, 1 mM DTT) with 1 uM Srctide (5-FAM-GEEPLYWSFPAKKK-NH2) and 15 uM ATP at 25 C for 90 minutes in the presence or absence of a dosed concentration series of compound (1% DMSO final concentration). The reaction was stopped by the addition of 70 ul of Stop buffer (100 mM HEPES pH 7.5, 0.015% Brij 35, 35 mM EDTA and 0.2% of Coating Reagent 3 (Caliper Lifesciences)). The plate was then read on a Caliper EZReader 2 (protocol settings:—1.9 psi, upstream voltage—700, downstream voltage—3000, post sample sip 35s). Data was normalized to 0% and 100% inhibition controls and the IC50 or EC50 calculated using a 4-parameter fit using GraphPad Prism."}, "[1]": {"biological_target": "T2, Kit D816V in HMC1.2 cells (Homo sapiens, UniProt P10721, D816V/V560G)", "T2 construct": "endogenous in cells; host or cells: HMC1.2", "T2 sequence (P10721 26-976 V560G/D816V)": "as the sequence (P10721 26-976 D816V) above, with V535G counted along it", "assay": "HMC1.2 autophosphorylation assay (Kit autophosphorylation at tyrosine 719, AlphaLISA)", "assay_type": "cell-based", "settings": "HMC1.2 mast cell leukemia cells (Kit V560G and D816V), phospho-Y719 c-Kit, 90 minutes; read-out: Cellular Activity IC50", "protocol": "10,000 HMC1.2 cells were incubated in 22 ul culture media (phenol-red free IMDM, no serum) in each well of a 384-well plate and serum starved overnight in a tissue culture incubator (5% CO2, 37° C.). A 10-point dose concentration series of compound (25 uM-95.4 pM) were then added to the cells in a volume of 3.1 ul to each well (0.25% DMSO final concentration). After 90 minutes, 6 ul of 5× AlphaLISA Lysis Buffer (Perkin Elmer) supplemented with a protease and phosphatase inhibitor cocktail (Cell Signaling Technologies) was added to each well and shaken at 450 rpm for 15 minutes at 4° C. 10 ul of phospho-Y719 c-Kit and total c-Kit antibodies (15 nM final concentration, Cell Signaling Technologies) and 50 ug/ml AlphaLISA rabbit acceptor beads (Perkin Elmer) were added to each well and shaken at 300 rpm at room temperature for 2 hours. 10 ul of 100 ug/ml streptavidin donor beads (Perkin Elmer) were added to each well, blocked from light with aluminum adhesive and shaken at 300 rpm at room temperature for 2 hours. Fluorescence signal was obtained on Envision (Perkin Elmer) by AlphaScreen 384 well HTS protocol. Data was normalized to 0% and 100% inhibition controls and the IC50 was calculated using Four Parameter Logistic IC50 curve fitting.\nThis cell line contains Kit mutated at positions V560G and D816V resulting in constitutive activation of the kinase. The following compounds were tested in an assay to measure direct inhibition of Kit D816V kinase activity by assaying Kit autophosphorylation at tyrosine 719 on the Kit protein."}},
  "note": "pIC50: −log10 of the molar value.",
  "data": [
    {"compound": "CC(C)(C)Oc1ccc(-c2cc3c(-c4ccc(NC(=O)Cc5ccc(Cl)cc5)cc4)ncnn3c2)cc1", "note": "[Compound 61]", "values": [
      {"measurement": "pIC50", "setting": "D816V Kit", "value": "7.00 to 8.00"},
      {"measurement": "pIC50", "setting": "[1]", "value": "5.00 to 6.00"}
    ]},
    {"compound": "CC(C)Oc1ccc(-c2cc3c(-c4ccc(NS(=O)(=O)c5ccc(Cl)cc5)cc4)ncnn3c2)cc1", "note": "[Compound 62, 4-chloro-N-(4-(6-(4-isopropoxyphenyl)pyrrolo[2,1-f][1,2,4]triazin-4-yl)phenyl)benzenesulfonamide]", "values": [
      {"measurement": "pIC50", "setting": "D816V Kit", "value": "7.00 to 8.00"},
      {"measurement": "pIC50", "setting": "[1]", "value": "5.00 to 6.00"}
    ]},
    {"compound": "CCC(=O)N1CC=C(c2cc3c(-c4ccc(NS(=O)(=O)c5ccc(Cl)cc5)cc4)ncnn3c2)CC1", "note": "[Compound 63]", "values": [
      {"measurement": "pIC50", "setting": "D816V Kit", "value": "> 9.00"},
      {"measurement": "pIC50", "setting": "[1]", "value": "7.00 to 8.00"}
    ]},
    {"compound": "CCOC(=O)N1CC=C(c2cc3c(-c4ccc(NS(=O)(=O)c5ccc(Cl)cc5)cc4)ncnn3c2)CC1", "note": "[Compound 64, ethyl 4-(4-(4-((4-chlorophenyl)sulfonamido)phenyl)pyrrolo[2,1-f][1,2,4]triazin-6-yl)-3,6-dihydropyridine-1(2H)-carboxylate]", "values": [
      {"measurement": "pIC50", "setting": "D816V Kit", "value": "8.00 to 9.00"},
      {"measurement": "pIC50", "setting": "[1]", "value": "7.00 to 8.00"}
    ]},
    {"compound": "CS(=O)(=O)c1ccc(-c2cc3c(-c4ccc(NS(=O)(=O)c5ccc(Cl)cc5)cc4)ncnn3c2)cc1", "note": "[Compound 65]", "values": [
      {"measurement": "pIC50", "setting": "D816V Kit", "value": "7.00 to 8.00"},
      {"measurement": "pIC50", "setting": "[1]", "value": "6.00 to 7.00"}
    ]},
    {"compound": "O=C(c1ccc(-c2cc3c(-c4ccc(NS(=O)(=O)c5ccc(Cl)cc5)cc4)ncnn3c2)cc1)N1CCC1", "note": "[Compound 66]", "values": [
      {"measurement": "pIC50", "setting": "D816V Kit", "value": "< 7.00"},
      {"measurement": "pIC50", "setting": "[1]", "value": "5.00 to 6.00"}
    ]}
  ]
}
